Measurements as given in PubChem BioAssay AID1259407 (Chemical Carcinogenesis Research Information System (CCRIS), 2018).
Active and inactive are the calls of the source. How the calls were made is not given here.

Tested on: CCRIS mutagenicity, Ames/micronucleus/aberration tests
Assay: CCRIS mutagenicity studies
[1] = Test System: AMES SALMONELLA TYPHIMURIUM, Strain/Indicator: TA98, Metabolic Activation: NONE, Method: STANDARD PLATE
[2] = Test System: AMES SALMONELLA TYPHIMURIUM, Strain/Indicator: TA100, Metabolic Activation: NONE, Method: STANDARD PLATE
[3] = Test System: AMES SALMONELLA TYPHIMURIUM, Strain/Indicator: TA1535, Metabolic Activation: NONE, Method: STANDARD PLATE
[4] = Test System: AMES SALMONELLA TYPHIMURIUM, Strain/Indicator: TA1537, Metabolic Activation: NONE, Method: STANDARD PLATE
[5] = Test System: AMES SALMONELLA TYPHIMURIUM, Strain/Indicator: TA1538, Metabolic Activation: NONE, Method: STANDARD PLATE

N#Cc1ccccc1
mutagenic call (End Point: IN VITRO MICRONUCLEUS, Test System: CHINESE HAMSTER V79, Metabolic Activation: NONE): active; positive | mutagenic call (Test System: AMES SALMONELLA TYPHIMURIUM, Strain/Indicator: TA97, Metabolic Activation: HAMSTER, LIVER, S-9, AROCLOR 1254 (10 OR 30%), Method: PREINCUBATION): inactive; negative | mutagenic call (Test System: AMES SALMONELLA TYPHIMURIUM, Strain/Indicator: TA97, Metabolic Activation: NONE, Method: PREINCUBATION): inactive; negative | mutagenic call (Test System: AMES SALMONELLA TYPHIMURIUM, Strain/Indicator: TA97, Metabolic Activation: RAT, LIVER, S-9, AROCLOR 1254 (10 OR 30%), Method: PREINCUBATION): inactive; negative | mutagenic call (Test System: AMES SALMONELLA TYPHIMURIUM, Strain/Indicator: TA98, Metabolic Activation: HAMSTER, LIVER, S-9, AROCLOR 1254 (10 OR 30%), Method: PREINCUBATION): inactive; negative | mutagenic call (Test System: AMES SALMONELLA TYPHIMURIUM, Strain/Indicator: TA98, Metabolic Activation: HAMSTER, LIVER, S-9, AROCLOR 1254, Method: STANDARD PLATE): inactive; negative | mutagenic call (Test System: AMES SALMONELLA TYPHIMURIUM, Strain/Indicator: TA98, Metabolic Activation: NONE, Method: PREINCUBATION): inactive; negative | mutagenic call [1]: inactive; negative | mutagenic call (Test System: AMES SALMONELLA TYPHIMURIUM, Strain/Indicator: TA98, Metabolic Activation: RAT LIVER S-9, PHENOBARBITAL AND BETA-NAPHTHOFLAVONE, Method: PREINCUBATION): inactive; negative | mutagenic call (Test System: AMES SALMONELLA TYPHIMURIUM, Strain/Indicator: TA98, Metabolic Activation: RAT, LIVER, S-9, AROCLOR 1254 (10 OR 30%), Method: PREINCUBATION): inactive; negative | mutagenic call (Test System: AMES SALMONELLA TYPHIMURIUM, Strain/Indicator: TA98, Metabolic Activation: RAT, LIVER, S-9, AROCLOR 1254, Method: STANDARD PLATE): inactive; negative | mutagenic call (Test System: AMES SALMONELLA TYPHIMURIUM, Strain/Indicator: TA100, Metabolic Activation: HAMSTER, LIVER, S-9, AROCLOR 1254 (10 OR 30%), Method: PREINCUBATION): inactive; negative | mutagenic call (Test System: AMES SALMONELLA TYPHIMURIUM, Strain/Indicator: TA100, Metabolic Activation: HAMSTER, LIVER, S-9, AROCLOR 1254, Method: STANDARD PLATE): inactive; negative | mutagenic call (Test System: AMES SALMONELLA TYPHIMURIUM, Strain/Indicator: TA100, Metabolic Activation: NONE, Method: PREINCUBATION): inactive; negative | mutagenic call [2]: inactive; negative | mutagenic call (Test System: AMES SALMONELLA TYPHIMURIUM, Strain/Indicator: TA100, Metabolic Activation: RAT LIVER S-9, PHENOBARBITAL AND BETA-NAPHTHOFLAVONE, Method: PREINCUBATION): inactive; negative | mutagenic call (Test System: AMES SALMONELLA TYPHIMURIUM, Strain/Indicator: TA100, Metabolic Activation: RAT, LIVER, S-9, AROCLOR 1254 (10 OR 30%), Method: PREINCUBATION): inactive; negative | mutagenic call (Test System: AMES SALMONELLA TYPHIMURIUM, Strain/Indicator: TA100, Metabolic Activation: RAT, LIVER, S-9, AROCLOR 1254, Method: STANDARD PLATE): inactive; negative | mutagenic call (Test System: AMES SALMONELLA TYPHIMURIUM, Strain/Indicator: TA1535, Metabolic Activation: HAMSTER, LIVER, S-9, AROCLOR 1254 (10 OR 30%), Method: PREINCUBATION): inactive; negative | mutagenic call (Test System: AMES SALMONELLA TYPHIMURIUM, Strain/Indicator: TA1535, Metabolic Activation: HAMSTER, LIVER, S-9, AROCLOR 1254, Method: STANDARD PLATE): inactive; negative | mutagenic call (Test System: AMES SALMONELLA TYPHIMURIUM, Strain/Indicator: TA1535, Metabolic Activation: NONE, Method: PREINCUBATION): inactive; negative | mutagenic call [3]: inactive; negative | mutagenic call (Test System: AMES SALMONELLA TYPHIMURIUM, Strain/Indicator: TA1535, Metabolic Activation: RAT LIVER S-9, PHENOBARBITAL AND BETA-NAPHTHOFLAVONE, Method: PREINCUBATION): inactive; negative | mutagenic call (Test System: AMES SALMONELLA TYPHIMURIUM, Strain/Indicator: TA1535, Metabolic Activation: RAT, LIVER, S-9, AROCLOR 1254 (10 OR 30%), Method: PREINCUBATION): inactive; negative | mutagenic call (Test System: AMES SALMONELLA TYPHIMURIUM, Strain/Indicator: TA1535, Metabolic Activation: RAT, LIVER, S-9, AROCLOR 1254, Method: STANDARD PLATE): inactive; negative | mutagenic call (Test System: AMES SALMONELLA TYPHIMURIUM, Strain/Indicator: TA1537, Metabolic Activation: HAMSTER, LIVER, S-9, AROCLOR 1254, Method: STANDARD PLATE): inactive; negative | mutagenic call (Test System: AMES SALMONELLA TYPHIMURIUM, Strain/Indicator: TA1537, Metabolic Activation: NONE, Method: PREINCUBATION): inactive; negative | mutagenic call [4]: inactive; negative | mutagenic call (Test System: AMES SALMONELLA TYPHIMURIUM, Strain/Indicator: TA1537, Metabolic Activation: RAT LIVER S-9, PHENOBARBITAL AND BETA-NAPHTHOFLAVONE, Method: PREINCUBATION): inactive; negative | mutagenic call (Test System: AMES SALMONELLA TYPHIMURIUM, Strain/Indicator: TA1537, Metabolic Activation: RAT, LIVER, S-9, AROCLOR 1254, Method: STANDARD PLATE): inactive; negative | mutagenic call (Test System: AMES SALMONELLA TYPHIMURIUM, Strain/Indicator: TA1538, Metabolic Activation: HAMSTER, LIVER, S-9, AROCLOR 1254, Method: STANDARD PLATE): inactive; negative | mutagenic call [5]: inactive; negative | mutagenic call (Test System: AMES SALMONELLA TYPHIMURIUM, Strain/Indicator: TA1538, Metabolic Activation: RAT, LIVER, S-9, AROCLOR 1254, Method: STANDARD PLATE): inactive; negative | mutagenic call (Test System: E. COLI, Strain/Indicator: WP2UVRA, Metabolic Activation: NONE, Method: PREINCUBATION): inactive; negative | mutagenic call (Test System: E. COLI, Strain/Indicator: WP2UVRA, Metabolic Activation: RAT LIVER S-9, PHENOBARBITAL AND BETA-NAPHTHOFLAVONE, Method: PREINCUBATION): inactive; negative | mutagenic call (Test System: MOUSE LYMPHOMA, Strain/Indicator: L5178Y (TK+/TK-), Metabolic Activation: NONE, Method: SUSPENSION/PLATE): inactive; negative. reevaluation of results: negative | mutagenic call (Test System: MOUSE LYMPHOMA, Strain/Indicator: L5178Y (TK+/TK-), Metabolic Activation: RAT, LIVER, S-9, AROCLOR 1254, Method: SUSPENSION/PLATE): inactive; negative. reevaluation of results: negative

[N-]=[N+]=NCCC(c1ccccc1)c1ccccc1
mutagenic call (Test System: AMES SALMONELLA TYPHIMURIUM, Strain/Indicator: TA100, Metabolic Activation: RAT, LIVER, S-9, PCB, Method: PREINCUBATION): active; positive

CSCCC(=O)N1[C@@H](c2ccccc2O)SC[C@H]1C(=O)O
mutagenic call [1]: inactive; negative | mutagenic call [2]: inactive; negative | mutagenic call [3]: inactive; negative | mutagenic call [4]: inactive; negative | mutagenic call [5]: inactive; negative | mutagenic call (Test System: E. COLI, Strain/Indicator: WP2, Metabolic Activation: NONE, Method: STANDARD PLATE): inactive; negative | mutagenic call (Test System: E. COLI, Strain/Indicator: WP2 UVRA, Metabolic Activation: NONE, Method: STANDARD PLATE): inactive; negative

COc1cc(OC)c2c(=O)c3cc(OC)ccc3oc2c1
mutagenic call (Test System: AMES SALMONELLA TYPHIMURIUM, Strain/Indicator: TA97, Metabolic Activation: RAT, LIVER, S-9, PHENOBARBITAL AND 5,6-BENZOFLAVONE, Method: PREINCUBATION): active; positive | mutagenic call (Test System: AMES SALMONELLA TYPHIMURIUM, Strain/Indicator: TA98, Metabolic Activation: RAT, LIVER, S-9, PHENOBARBITAL AND 5,6-BENZOFLAVONE, Method: PREINCUBATION): inactive; negative | mutagenic call (Test System: AMES SALMONELLA TYPHIMURIUM, Strain/Indicator: TA100, Metabolic Activation: RAT, LIVER, S-9, PHENOBARBITAL AND 5,6-BENZOFLAVONE, Method: PREINCUBATION): active; positive | mutagenic call (Test System: AMES SALMONELLA TYPHIMURIUM, Strain/Indicator: TA2637, Metabolic Activation: NONE, Method: PREINCUBATION): active; positive | mutagenic call (Test System: AMES SALMONELLA TYPHIMURIUM, Strain/Indicator: TA2637, Metabolic Activation: RAT, LIVER, S-9, PHENOBARBITAL AND 5,6-BENZOFLAVONE, Method: PREINCUBATION): active; positive

O=[N+]([O-])c1ccc2ccc3cc4c(c5ccc1c2c35)CCCC4O (stereo unspecified)
mutagenic call [1]: active; positive
